These results are taken from patent US20090023759A1, “Quinazoline Derivatives as Inhibitors of EGF and/or erbB2 Receptor Tyrosine Kinase” (priority 2005, published 2009).

In general, pIC50 refers to the IC50 on a negative log10 scale, so that one unit is a factor of ten.

In assay [1] the target is T1, EGFR tyrosine kinase (Homo sapiens, UniProt P00533).
T1 construct: Recombinant intracellular fragments of EGFR, erbB2 and erbB4; made in house; host or cells: baculovirus/Sf21 insect cells (cleared lysate used)
T1 sequence (P00533 669-1210 limits assumed): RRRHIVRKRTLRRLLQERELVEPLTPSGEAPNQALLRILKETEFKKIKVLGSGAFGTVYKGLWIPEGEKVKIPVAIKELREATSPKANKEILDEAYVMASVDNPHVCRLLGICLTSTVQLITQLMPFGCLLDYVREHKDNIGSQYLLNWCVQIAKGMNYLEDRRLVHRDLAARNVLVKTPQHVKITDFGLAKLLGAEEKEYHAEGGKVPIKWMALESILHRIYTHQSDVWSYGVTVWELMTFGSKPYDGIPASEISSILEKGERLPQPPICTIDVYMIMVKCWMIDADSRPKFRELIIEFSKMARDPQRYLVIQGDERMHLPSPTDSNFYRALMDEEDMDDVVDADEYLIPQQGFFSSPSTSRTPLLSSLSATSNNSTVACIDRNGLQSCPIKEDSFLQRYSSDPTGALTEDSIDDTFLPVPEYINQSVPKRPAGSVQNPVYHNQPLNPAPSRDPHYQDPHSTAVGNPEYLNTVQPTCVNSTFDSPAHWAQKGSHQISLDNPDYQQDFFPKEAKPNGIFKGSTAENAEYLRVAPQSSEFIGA
As to the kind of experiment: Test (a) protein tyrosine kinase phosphorylation assay, EGFR. The class given is biochemical. As to conditions: ATP at Km concentration; read-out: IC50 Test (a): Inhibition of EGFR tyrosine kinase protein phosphorylation. The protocol: (§1) a) Protein Tyrosine Kinase phosphorylation Assays
(§2) This test measures the ability of a test compound to inhibit the phosphorylation of a tyrosine containing polypeptide substrate by EGFR, erbB2 and erbB4 tyrosine kinase enzyme.
(§3) Recombinant intracellular fragments of EGFR, erbB2 and erbB4 (accession numbers X00588, X03363 and L07868 respectively) were cloned and expressed in the baculovirus/Sf21 system. […]
(§4) Constitutive kinase activity of these recombinant proteins was determined by their ability to phosphorylate a synthetic peptide (made up of a random co-polymer of Glutamic Acid, Alanine and Tyrosine in the ratio of 6:3:1). […]
(§5) The immobilised phospho-peptide product of the reaction was detected by immunological methods. […] After further washing, HRP activity in each well of the plate was measured colorimetrically using 22′-Azino-di-[3-ethylbenzthiazoline sulfonate (6)]diammonium salt crystals (ABTS™ from Roche) as a substrate.
(§6) Quantification of colour development and thus enzyme activity was achieved by the measurement of absorbance at 405 nm on a Molecular Devices ThermoMax microplate reader. Kinase inhibition for a given compound was expressed as an IC50 value. […] The range of phosphorylation was calculated from the positive (vehicle plus ATP) and negative (vehicle minus ATP) control values.

The target of assay [2] is T2, erbB2 tyrosine kinase (Homo sapiens, UniProt P04626).
T2 construct: Recombinant intracellular fragments of EGFR, erbB2 and erbB4; made in house; host or cells: baculovirus/Sf21 insect cells (cleared lysate used)
T2 sequence (P04626 676-1255 limits assumed): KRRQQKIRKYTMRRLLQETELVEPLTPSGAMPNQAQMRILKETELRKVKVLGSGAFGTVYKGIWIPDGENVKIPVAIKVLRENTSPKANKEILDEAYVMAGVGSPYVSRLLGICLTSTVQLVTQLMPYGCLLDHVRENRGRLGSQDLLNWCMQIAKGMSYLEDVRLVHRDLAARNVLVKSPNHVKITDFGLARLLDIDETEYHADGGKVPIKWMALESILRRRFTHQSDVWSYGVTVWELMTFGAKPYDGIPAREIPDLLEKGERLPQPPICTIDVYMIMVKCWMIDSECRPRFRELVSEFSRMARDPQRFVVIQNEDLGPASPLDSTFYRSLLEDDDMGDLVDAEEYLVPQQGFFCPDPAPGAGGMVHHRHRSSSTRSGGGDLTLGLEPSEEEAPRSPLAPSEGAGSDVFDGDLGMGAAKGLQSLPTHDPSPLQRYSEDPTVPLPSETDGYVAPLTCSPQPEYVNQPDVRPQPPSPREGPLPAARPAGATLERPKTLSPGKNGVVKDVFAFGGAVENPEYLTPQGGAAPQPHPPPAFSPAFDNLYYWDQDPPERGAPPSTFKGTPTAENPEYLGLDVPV
The experiment in a line: Test (a) protein tyrosine kinase phosphorylation assay, erbB2. The class given is biochemical. The conditions noted are these: ATP at Km concentration; read-out: IC50 Test (a): Inhibition of erbB2 tyrosine kinase protein phosphorylation. The protocol: as §1, §2, §3, §4, §5, §6

For assay [3], the target named is T3, erbB2 in a MCF7 derived cell line (Clone 24 cells) (Homo sapiens, UniProt P04626).
T3 construct: a cell line that overexpresses full length wild type erbB2 protein; expressed in transfected cells
T3 sequence (P04626 23-1255): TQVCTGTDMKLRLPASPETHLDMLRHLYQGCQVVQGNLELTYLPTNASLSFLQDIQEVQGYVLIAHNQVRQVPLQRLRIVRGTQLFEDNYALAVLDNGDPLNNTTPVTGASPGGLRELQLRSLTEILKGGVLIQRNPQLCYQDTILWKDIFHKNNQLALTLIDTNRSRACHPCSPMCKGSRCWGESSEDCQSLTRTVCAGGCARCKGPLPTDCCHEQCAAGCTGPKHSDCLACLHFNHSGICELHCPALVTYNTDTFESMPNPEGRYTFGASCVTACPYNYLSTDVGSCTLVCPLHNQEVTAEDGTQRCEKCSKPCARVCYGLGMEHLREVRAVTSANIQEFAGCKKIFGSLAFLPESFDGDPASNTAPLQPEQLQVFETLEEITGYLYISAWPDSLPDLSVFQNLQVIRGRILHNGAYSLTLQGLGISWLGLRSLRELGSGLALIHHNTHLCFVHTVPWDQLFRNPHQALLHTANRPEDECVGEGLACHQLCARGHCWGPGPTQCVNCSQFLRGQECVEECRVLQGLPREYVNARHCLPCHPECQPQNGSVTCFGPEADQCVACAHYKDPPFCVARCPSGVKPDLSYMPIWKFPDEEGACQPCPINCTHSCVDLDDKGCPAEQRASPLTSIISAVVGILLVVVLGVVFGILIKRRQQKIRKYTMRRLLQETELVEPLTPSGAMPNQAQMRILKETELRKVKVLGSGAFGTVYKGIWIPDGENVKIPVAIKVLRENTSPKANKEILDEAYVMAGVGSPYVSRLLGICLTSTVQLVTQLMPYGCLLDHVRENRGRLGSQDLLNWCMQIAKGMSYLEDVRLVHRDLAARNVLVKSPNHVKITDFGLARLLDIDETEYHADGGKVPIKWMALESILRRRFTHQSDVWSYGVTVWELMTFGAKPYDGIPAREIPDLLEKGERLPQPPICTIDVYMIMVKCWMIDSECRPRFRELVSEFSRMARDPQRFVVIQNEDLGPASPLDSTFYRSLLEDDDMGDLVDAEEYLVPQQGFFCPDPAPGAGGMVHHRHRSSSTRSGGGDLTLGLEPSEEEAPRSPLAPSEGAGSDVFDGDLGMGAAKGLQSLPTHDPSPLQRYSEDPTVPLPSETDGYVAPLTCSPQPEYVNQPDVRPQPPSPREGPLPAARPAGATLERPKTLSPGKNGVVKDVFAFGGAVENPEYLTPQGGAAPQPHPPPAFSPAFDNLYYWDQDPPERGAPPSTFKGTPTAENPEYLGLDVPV
As to the kind of experiment: Test (c) Clone 24 phospho-erbB2 cell assay. As to conditions: 4 hours with compound, read-out: IC50 Test (c): Inhibition of erbB2 tyrosine kinase protein phosphorylation. The format is cell-based. The method, then: c) Clone 24 Phospho-erbB2 Cell Assay
This immunofluorescence end point assay measures the ability of a test compound to inhibit the phosphorylation of erbB2 in a MCF7 (breast carcinoma) derived cell line which was generated by transfecting MCF7 cells with the full length erbB2 gene using standard methods to give a cell line that overexpresses full length wild type erbB2 protein (hereinafter ‘Clone 24’ cells).
Clone 24 cells were cultured in Growth Medium (phenol red free Dulbecco's modified Eagle's medium (DMEM) containing 10% foetal bovine serum, 2 mM glutamine and 1.2 mg/ml G418) in a 7.5% CO2 air incubator at 37° C. […] Cell density was measured using a haemocytometer and viability was calculated using Trypan Blue solution before being further diluted in Growth Medium and seeded at a density of 1×10^4 cells per well (in 100 μl) into clear bottomed 96 well plates (Packard, No. 6005182). […]
Immunostaining was performed at room temperature. […] Plates were analysed within six hours of completing the immunostaining.
The Fluorescence signal is each well was measured using an Acumen Explorer Instrument (Acumen Bioscience Ltd.), a plate reader that can be used to rapidly quantitate features of images generated by laser-scanning. […]

Molecules are shown by their SMILES. pIC50: −log10 of the molar value.

For `C[C@H](CN(C)C(=O)CO)Oc1cccc2ncnc(Nc3ccc4c(ccn4Cc4ccccn4)c3)c12` [Example 1, 2-Hydroxy-N-methyl-N-{(2R)-2-[(4-{[1-(pyridin-2-ylmethyl)-1H-indol-5-yl]amino}quinazolin-5-yl)oxy]propyl}acetamide], the values for the pIC50 in assay [1], in assay [2] and in assay [3] were 6.11, 7.15 and 6.00, respectively.

Take `C[C@H](COc1cccc2ncnc(Nc3ccc4c(ccn4Cc4ccccn4)c3)c12)N(C)C(=O)CO` [Example 2, 2-Hydroxy-N-methyl-N-{(R)-1-methyl-2-[4-(1-pyridin-2-ylmethyl-1H-indol-5-ylamino)-quinazolin-5-yloxy]-ethyl}-acetamide]: the pIC50 in assay [1] is 7.20; in assay [2] it was 8.30; in assay [3], 8.70.
